Measurements published in ChEMBL document CHEMBL5543112, “Discovery of CBPD-268 as an Exceptionally Potent and Orally Efficacious CBP/p300 PROTAC Degrader Capable of Achieving Tumor Regression” (J Med Chem, 2024).

Tests used:
[1] = Drug distribution in SCID mouse liver at 1 mg/kg, po measured at 1 hr by LC-MS/MS analysis; assay type: ADME, organism-based; settings: read-out: Ct
[2] = Drug distribution in SCID mouse plasma at 0.3 mg/kg, po measured at 1 hr by LC-MS/MS analysis; assay type: ADME, organism-based
[3] = Toxicity in immune-competent Sprague-Dawley rat assessed as change in white blood cells count at 1 to 10 mg/kg, po administered twice a week for 5 weeks; assay type: organism-based; settings: in vivo, 840 h, dose 1-10 mg/kg
[4] = Drug distribution in SCID mouse liver at 3 mg/kg, po measured at 6 hrs by LC-MS/MS analysis; assay type: ADME, organism-based; settings: read-out: Ct
[5] = Half life in Sprague-Dawley rat at 1 mg/kg, iv measured upto 24 hrs by LC/MS-MS analysis; assay type: ADME, organism-based; settings: in vivo
[6] = Drug distribution in Sprague-Dawley rat liver at 10 mg/kg, po measured at 6 hrs by LC-MS/MS analysis; assay type: ADME, organism-based; settings: read-out: Ct
[7] = AUC in ICR mouse at 3 mg/kg, po measured upto 24 hrs by LC/MS-MS analysis; assay type: ADME, organism-based; settings: in vivo
[8] = Drug distribution in Sprague-Dawley rat spleen at 10 mg/kg, po measured at 1 hr by LC-MS/MS analysis; assay type: ADME, organism-based; settings: read-out: Ct
[9] = Drug distribution in SCID mouse spleen at 0.3 mg/kg, po measured at 6 hrs by LC-MS/MS analysis; assay type: ADME, organism-based; settings: read-out: Ct
[10] = Plasma protein binding in dog by LC-MS analysis; assay type: ADME, cell-free, Canis lupus familiaris; settings: read-out: PPB (converted)
[11] = Toxicity in SCID mouse xenografted with human 22Rv1 cells assessed as loss of body weight at 0.3 to 3 mg/kg, po administered upto 3 weeks; assay type: organism-based, CWR22R; settings: in vivo, 504 h, dose 0.3-3 mg/kg
[12] = Drug distribution in Sprague-Dawley rat heart at 10 mg/kg, po measured at 1 hr by LC-MS/MS analysis; assay type: ADME, organism-based; settings: read-out: Ct
[13] = Drug distribution in SCID mouse tumor at 1 mg/kg, po measured at 6 hrs by LC-MS/MS analysis; assay type: ADME, organism-based, Neoplasm; settings: read-out: Ct
[14] = Toxicity in female BALB/c mouse assessed as body weight loss at 30 mg/kg, po administered twice a week for 5 to 6 weeks; assay type: organism-based; settings: in vivo, time 5-6 weeks
[15] = Toxicity in immune-competent Sprague-Dawley rat assessed as change in blood urea nitrogen level at 1 to 10 mg/kg, po administered twice a week for 5 weeks; assay type: organism-based; settings: in vivo, 840 h, dose 1-10 mg/kg
[16] = Drug concentration in SCID mouse plasma at 1 mg/kg, po measured at 1 hr by LC-MS/MS analysis; assay type: ADME, organism-based
[17] = Toxicity in immune-competent Sprague-Dawley rat at 1 to 10 mg/kg, po administered twice a week for 5 weeks; assay type: organism-based; settings: in vivo, 840 h, dose 1-10 mg/kg
VCaP = test: Antiproliferative activity against human VCaP cells assessed as cell growth inhibition incubated for 4 days by celtiter-glo luminescent assay; settings: 96 h
[18] = Drug distribution in Sprague-Dawley rat liver at 10 mg/kg, po measured at 1 hr by LC-MS/MS analysis; assay type: ADME, organism-based; settings: read-out: Ct
[19] = Drug distribution in Sprague-Dawley rat liver at 3 mg/kg, po measured at 1 hr by LC-MS/MS analysis; assay type: ADME, organism-based; settings: read-out: Ct
[20] = Toxicity in immune-competent Sprague-Dawley rat assessed as change in total protein level at 1 to 10 mg/kg, po administered twice a week for 5 weeks; assay type: organism-based; settings: in vivo, 840 h, dose 1-10 mg/kg
[21] = Drug distribution in Sprague-Dawley rat plasma at 3 mg/kg, po measured at 6 hrs by LC-MS/MS analysis; assay type: ADME, organism-based
[22] = Drug distribution in SCID mouse liver at 1 mg/kg, po measured at 24 hrs by LC-MS/MS analysis; assay type: ADME, organism-based; settings: read-out: Ct
[23] = Drug distribution in Sprague-Dawley rat liver at 3 mg/kg, po measured at 24 hrs by LC-MS/MS analysis; assay type: ADME, organism-based; settings: read-out: Ct
[24] = Toxicity in SCID mouse xenografted with human VCaP cells assessed as loss of body weight at 1 to 3 mg/kg, po administered daily 5 times a week for 4 weeks; assay type: organism-based; settings: in vivo, 672 h, dose 1-3 mg/kg
[25] = Drug distribution in Sprague-Dawley rat kidney at 10 mg/kg, po measured at 6 hrs by LC-MS/MS analysis; assay type: ADME, organism-based; settings: read-out: Ct
[26] = Drug distribution in SCID mouse spleen at 3 mg/kg, po measured at 1 hr by LC-MS/MS analysis; assay type: ADME, organism-based; settings: read-out: Ct
[27] = Half life in ICR mouse at 3 mg/kg, po measured upto 24 hrs by LC/MS-MS analysis; assay type: ADME, organism-based; settings: in vivo
Cytochrome P450 3A4 = Cytochrome P450 3A4 (Homo sapiens, UniProt P08684); test: Inhibition of CYP3A4 (unknown origin) using midazolam as substrate preincubated with compound for 5 mins followed by NADPH addition and measured after 20 mins by LC-MS/MS analysis; assay type: ADME
Cytochrome P450 3A4, sequence (P08684 whole entry): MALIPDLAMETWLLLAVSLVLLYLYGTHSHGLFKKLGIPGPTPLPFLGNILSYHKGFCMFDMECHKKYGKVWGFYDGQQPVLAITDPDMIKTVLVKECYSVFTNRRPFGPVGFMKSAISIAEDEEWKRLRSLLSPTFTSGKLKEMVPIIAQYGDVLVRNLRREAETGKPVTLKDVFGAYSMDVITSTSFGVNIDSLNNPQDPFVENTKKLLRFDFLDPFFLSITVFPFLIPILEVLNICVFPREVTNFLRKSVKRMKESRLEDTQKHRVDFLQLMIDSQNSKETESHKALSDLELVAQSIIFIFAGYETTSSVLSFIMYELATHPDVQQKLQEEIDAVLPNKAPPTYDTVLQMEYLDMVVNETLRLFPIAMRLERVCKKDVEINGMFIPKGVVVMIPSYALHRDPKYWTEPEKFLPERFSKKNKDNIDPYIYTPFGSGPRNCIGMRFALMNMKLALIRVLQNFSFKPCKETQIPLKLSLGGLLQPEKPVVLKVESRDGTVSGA

[28] = Drug distribution in Sprague-Dawley rat heart at 3 mg/kg, po measured at 1 hr by LC-MS/MS analysis; assay type: ADME, organism-based; settings: read-out: Ct
[29] = Cmax in Sprague-Dawley rat at 3 mg/kg, po measured upto 24 hrs by LC/MS-MS analysis; assay type: ADME, organism-based; settings: in vivo
[30] = Metabolic stability in rat liver microsome assessed as half life measured upto 60 mins in presence of NADPH by LC-MS/MS analysis; assay type: ADME; settings: liver microsomes
CWR22R [31] = test: Antitumor activity against human 22Rv1 cells xenografted in SCID mouse assessed as tumor growth inhibition at 3 mg/kg, po administered 3 times a week for 3 weeks; assay type: functional; settings: 22Rv1, 504 h, read-out: TGI
CWR22R [32] = test: Antitumor activity against human 22Rv1 cells xenografted in SCID mouse assessed as tumor growth inhibition at 1 mg/kg, po administered 5 times a week for 3 weeks; assay type: functional; settings: 22Rv1, 504 h, read-out: TGI
[33] = Chemical stability of the compound assessed as parent compound remaining measured at 3 hrs; assay type: physicochemical
[34] = Cmax in ICR mouse at 3 mg/kg, po measured upto 24 hrs by LC/MS-MS analysis; assay type: ADME, organism-based; settings: in vivo
[35] = Drug distribution in SCID mouse plasma at 3 mg/kg, po measured at 1 hr by LC-MS/MS analysis; assay type: ADME, organism-based
[36] = Metabolic stability in monkey plasma assessed as half life measured upto 120 mins by LC-MS/MS analysis; assay type: ADME, cell-free, Macaca mulatta; settings: rhesus monkey
CWR22R [37] = test: Antitumor activity against human 22Rv1 cells xenografted in SCID mouse assessed as tumor growth inhibition at 1 mg/kg, po administered 3 times a week for 3 weeks; assay type: functional; settings: 22Rv1, 504 h, read-out: TGI
[38] = Plasma protein binding in human by LC-MS analysis; assay type: ADME, cell-free; settings: read-out: PPB (converted)
LNCaP = test: Antiproliferative activity against human LNCaP cells assessed as cell growth inhibition incubated for 4 days by celtiter-glo luminescent assay; settings: 96 h
[39] = Drug distribution in Sprague-Dawley rat plasma at 10 mg/kg, po measured at 6 hrs by LC-MS/MS analysis; assay type: ADME, organism-based

CC(=O)N1CCc2c(c(N3CCCc4cc(-c5cnn(C)c5)c(C(F)F)cc43)nn2[C@H]2CC[C@H](CN3Cc4cc5c(cc4C3)C(=O)N(C3CCC(=O)NC3=O)C5=O)CC2)C1 (some centres not stated)
concentration at 1 h [1]: 1640 ng/mL | concentration at 1 h [2]: 35.2 ng/mL | Activity [3]: Non-Toxic | concentration at 6 h [4]: 1750 ng/mL | half-life [5]: 1.9 h | concentration at 6 h [6]: 541 ng/g | AUC at 24 h [7]: 4190 ng·h/mL | concentration at 1 h [8]: 1990 ng/g | concentration at 6 h [9]: 27.4 ng/mL | fraction unbound [10]: 0.009 | Activity [11]: Non-Toxic | concentration at 1 h [12]: 638 ng/g | concentration at 6 h [13]: 64.3 ng/g | Activity [14]: < 5% | Activity [15]: Non-Toxic | concentration at 1 h [16]: 141 ng/mL | Activity [17]: Non-Toxic | IC50 (VCaP): 4.6 nM | concentration at 1 h [18]: 4100 ng/g | concentration at 1 h [19]: 978 ng/g | Activity [20]: Non-Toxic | concentration at 6 h [21]: 13.1 ng/mL | concentration at 24 h [22]: 13.7 ng/mL | concentration at 24 h [23]: 8.4 ng/g | Activity [24]: > 8% | concentration at 6 h [25]: 224 ng/g | concentration at 1 h [26]: 937 ng/mL | half-life [27]: 3.1 h | IC50 (Cytochrome P450 3A4): > 10000 nM | concentration at 1 h [28]: 246 ng/g | Cmax [29]: 221 ng/mL | half-life [30]: 1.08 h | inhibition in vivo at 3 mg/kg (CWR22R [31]): 83% | inhibition in vivo at 1 mg/kg (CWR22R [32]): 75% | Stability [33]: Stable | Cmax [34]: 725 ng/mL | concentration at 1 h [35]: 747 ng/mL | half-life [36]: > 2 h | inhibition in vivo at 1 mg/kg (CWR22R [37]): 54% | fraction unbound [38]: 0.009 | IC50 (LNCaP): 10.3 nM | concentration at 6 h [39]: 41.4 ng/mL
